The values that follow are results of earlier work, collected in patent US9662296B2, “Pharmaceutical composition comprising bicarbonate salt, and use thereof as a medicament in the treatment and/or prevention of urinary lithiases and related diseases” (ADVICENNE, priority 2010, dated 2017).

For the series the following is noted: high doses (30 to 40 grams per day).

For `O=C([O-])O.[K+]` [potassium bicarbonate], the adverse manifestations entry was “manifestations of metabolic alkalosis or digestive disorders, mainly diarrhoea”.

Turning to `O=C([O-])O.[Na+]` [sodium bicarbonate], the adverse manifestations entry is given as “manifestations of metabolic alkalosis or digestive disorders, mainly diarrhoea”.
